Assay results published in paper PMC8429728, “TNK1 is a ubiquitin-binding and 14-3-3-regulated kinase that can be targeted to block tumor growth” (Nature Communications, 2021).
Read-outs that look alike come from different tables or passages of the source.

Tests used:
Assay in all cases: biochemical
Design in all cases: Reaction Biology 371-kinase panel at Km ATP, per cent enzyme activity relative to DMSO, single dose in duplicate
Conditions in all cases: duplicate measurements, Km ATP
CAMK2d = CAMK2d (Homo sapiens, UniProt Q13557)
How it was run: (§1)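 In vitro selectivity panel: 371 kinases, inhibitor at 300 nM; % activity vs DMSO; IC50 by variable-slope sigmoidal fit, bottom = 0.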

CAMK2g = CAMK2g (Homo sapiens, UniProt Q13555)
How it was run: as §1

PDGFRa = PDGFRa (Homo sapiens, UniProt P16234)
How it was run: as §1

MST1/STK4 = MST1/STK4 (Homo sapiens, UniProt Q13043)
How it was run: as §1

PKMYT1 = biological target: T1, PKMYT1 (Homo sapiens, UniProt Q99640)
T1 sequence (Q99640 1-499): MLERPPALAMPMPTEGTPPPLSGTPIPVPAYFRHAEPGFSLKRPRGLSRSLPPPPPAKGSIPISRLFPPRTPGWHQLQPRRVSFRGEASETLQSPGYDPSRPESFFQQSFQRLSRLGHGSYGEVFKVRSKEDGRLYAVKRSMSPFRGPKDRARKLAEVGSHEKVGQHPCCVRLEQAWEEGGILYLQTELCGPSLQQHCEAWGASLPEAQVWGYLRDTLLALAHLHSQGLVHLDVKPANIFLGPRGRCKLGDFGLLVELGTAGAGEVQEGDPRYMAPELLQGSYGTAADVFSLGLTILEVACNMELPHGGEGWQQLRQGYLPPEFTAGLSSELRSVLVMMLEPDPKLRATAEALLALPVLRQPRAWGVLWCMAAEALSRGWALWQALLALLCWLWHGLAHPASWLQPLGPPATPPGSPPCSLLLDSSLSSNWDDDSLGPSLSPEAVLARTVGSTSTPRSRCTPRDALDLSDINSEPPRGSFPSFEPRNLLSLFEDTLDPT
How it was run: as §1

IKKe/IKBKE = IKKe/IKBKE (Homo sapiens, UniProt Q14164)
How it was run: as §1

LCK = LCK (Homo sapiens, UniProt P06239)
How it was run: as §1

MNK1 = biological target: T2, MNK1 (Homo sapiens, UniProt Q9BUB5)
T2 construct: gene MKNK1
How it was run: as §1

Aurora A = biological target: T3, Aurora A (Homo sapiens, UniProt O14965)
T3 construct: gene AURKA
T3 sequence (O14965 1-403): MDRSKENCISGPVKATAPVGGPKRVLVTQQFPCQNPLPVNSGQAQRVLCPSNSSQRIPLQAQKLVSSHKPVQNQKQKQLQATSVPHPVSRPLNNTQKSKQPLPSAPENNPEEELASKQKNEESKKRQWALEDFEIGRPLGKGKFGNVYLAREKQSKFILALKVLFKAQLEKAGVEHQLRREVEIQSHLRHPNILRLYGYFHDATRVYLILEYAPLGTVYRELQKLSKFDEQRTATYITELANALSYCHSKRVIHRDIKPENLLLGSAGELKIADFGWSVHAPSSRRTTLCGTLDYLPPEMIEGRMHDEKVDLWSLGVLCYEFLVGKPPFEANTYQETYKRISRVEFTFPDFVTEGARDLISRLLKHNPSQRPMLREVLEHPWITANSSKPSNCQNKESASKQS
How it was run: as §1

AXL = AXL (Homo sapiens, UniProt P30530)
How it was run: as §1

CK2a2 = biological target: T4, CK2a2 (Homo sapiens, UniProt P19784)
T4 construct: gene CSNK2A2
How it was run: as §1

EPHA1 = EPHA1 (Homo sapiens, UniProt P21709)
How it was run: as §1

TNIK = TNIK (Homo sapiens, UniProt Q9UKE5)
How it was run: as §1

TIE2/TEK = TIE2/TEK (Homo sapiens, UniProt Q02763)
How it was run: as §1

[1] = read-out: % Enzyme Activity (relative to DMSO controls) / TP-0005801 (0.3µM) / Data 1
[2] = read-out: % Enzyme Activity (relative to DMSO controls) / TP-0005801 (0.3µM) / Data 2

CAMK2g, sequence (Q13555 whole entry): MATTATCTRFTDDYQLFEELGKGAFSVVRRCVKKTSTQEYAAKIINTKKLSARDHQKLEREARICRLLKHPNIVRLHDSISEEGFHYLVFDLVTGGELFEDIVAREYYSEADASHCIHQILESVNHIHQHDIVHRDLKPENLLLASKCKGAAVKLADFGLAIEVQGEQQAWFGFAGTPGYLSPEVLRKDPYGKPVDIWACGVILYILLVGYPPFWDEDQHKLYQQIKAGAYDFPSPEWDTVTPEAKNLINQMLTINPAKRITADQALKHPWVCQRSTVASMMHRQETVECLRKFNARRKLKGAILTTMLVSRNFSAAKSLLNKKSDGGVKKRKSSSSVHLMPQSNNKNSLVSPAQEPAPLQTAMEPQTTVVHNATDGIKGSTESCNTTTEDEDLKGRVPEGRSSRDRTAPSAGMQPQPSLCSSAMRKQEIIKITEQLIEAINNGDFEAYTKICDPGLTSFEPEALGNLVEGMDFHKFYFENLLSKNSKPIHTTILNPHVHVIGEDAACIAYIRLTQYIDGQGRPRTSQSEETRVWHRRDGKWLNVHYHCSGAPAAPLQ
EPHA1, sequence (P21709 whole entry): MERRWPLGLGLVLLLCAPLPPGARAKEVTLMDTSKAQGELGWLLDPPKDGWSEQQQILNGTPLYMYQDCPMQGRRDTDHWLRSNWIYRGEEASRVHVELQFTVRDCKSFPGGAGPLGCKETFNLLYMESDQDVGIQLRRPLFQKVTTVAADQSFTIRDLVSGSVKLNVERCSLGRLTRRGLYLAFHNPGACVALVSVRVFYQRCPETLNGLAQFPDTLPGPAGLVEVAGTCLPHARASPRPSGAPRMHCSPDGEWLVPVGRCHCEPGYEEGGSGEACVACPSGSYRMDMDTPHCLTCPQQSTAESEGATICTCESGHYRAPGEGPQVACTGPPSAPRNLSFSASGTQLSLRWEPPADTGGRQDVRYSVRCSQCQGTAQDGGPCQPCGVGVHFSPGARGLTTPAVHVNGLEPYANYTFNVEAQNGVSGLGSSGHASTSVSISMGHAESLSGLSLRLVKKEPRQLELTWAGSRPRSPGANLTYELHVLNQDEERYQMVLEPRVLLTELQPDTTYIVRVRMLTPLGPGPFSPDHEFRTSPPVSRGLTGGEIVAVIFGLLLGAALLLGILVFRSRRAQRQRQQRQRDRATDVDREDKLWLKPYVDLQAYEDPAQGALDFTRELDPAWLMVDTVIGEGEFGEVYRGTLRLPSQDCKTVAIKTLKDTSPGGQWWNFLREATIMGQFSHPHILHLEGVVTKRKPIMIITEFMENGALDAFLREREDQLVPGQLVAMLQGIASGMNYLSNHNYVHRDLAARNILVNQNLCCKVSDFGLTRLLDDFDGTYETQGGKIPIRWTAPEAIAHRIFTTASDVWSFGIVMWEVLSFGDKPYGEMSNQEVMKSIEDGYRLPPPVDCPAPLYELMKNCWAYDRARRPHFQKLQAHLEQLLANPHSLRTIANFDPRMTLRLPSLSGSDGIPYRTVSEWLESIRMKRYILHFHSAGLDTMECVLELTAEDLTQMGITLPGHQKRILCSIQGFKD
MST1/STK4, sequence (Q13043 whole entry): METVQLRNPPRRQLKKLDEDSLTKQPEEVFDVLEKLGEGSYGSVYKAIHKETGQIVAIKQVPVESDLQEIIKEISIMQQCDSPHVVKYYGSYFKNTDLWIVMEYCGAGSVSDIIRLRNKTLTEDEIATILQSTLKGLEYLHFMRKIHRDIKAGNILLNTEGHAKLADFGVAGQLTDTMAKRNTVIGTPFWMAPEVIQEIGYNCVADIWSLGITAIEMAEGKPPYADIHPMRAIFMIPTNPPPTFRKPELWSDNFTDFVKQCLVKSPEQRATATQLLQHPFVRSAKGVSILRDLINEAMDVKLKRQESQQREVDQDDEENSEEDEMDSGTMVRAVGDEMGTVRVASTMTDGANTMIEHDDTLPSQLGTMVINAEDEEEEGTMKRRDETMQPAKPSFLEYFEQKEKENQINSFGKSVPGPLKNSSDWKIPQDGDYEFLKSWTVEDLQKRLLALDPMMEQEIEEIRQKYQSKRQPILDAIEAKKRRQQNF
TIE2/TEK, sequence (Q02763 whole entry): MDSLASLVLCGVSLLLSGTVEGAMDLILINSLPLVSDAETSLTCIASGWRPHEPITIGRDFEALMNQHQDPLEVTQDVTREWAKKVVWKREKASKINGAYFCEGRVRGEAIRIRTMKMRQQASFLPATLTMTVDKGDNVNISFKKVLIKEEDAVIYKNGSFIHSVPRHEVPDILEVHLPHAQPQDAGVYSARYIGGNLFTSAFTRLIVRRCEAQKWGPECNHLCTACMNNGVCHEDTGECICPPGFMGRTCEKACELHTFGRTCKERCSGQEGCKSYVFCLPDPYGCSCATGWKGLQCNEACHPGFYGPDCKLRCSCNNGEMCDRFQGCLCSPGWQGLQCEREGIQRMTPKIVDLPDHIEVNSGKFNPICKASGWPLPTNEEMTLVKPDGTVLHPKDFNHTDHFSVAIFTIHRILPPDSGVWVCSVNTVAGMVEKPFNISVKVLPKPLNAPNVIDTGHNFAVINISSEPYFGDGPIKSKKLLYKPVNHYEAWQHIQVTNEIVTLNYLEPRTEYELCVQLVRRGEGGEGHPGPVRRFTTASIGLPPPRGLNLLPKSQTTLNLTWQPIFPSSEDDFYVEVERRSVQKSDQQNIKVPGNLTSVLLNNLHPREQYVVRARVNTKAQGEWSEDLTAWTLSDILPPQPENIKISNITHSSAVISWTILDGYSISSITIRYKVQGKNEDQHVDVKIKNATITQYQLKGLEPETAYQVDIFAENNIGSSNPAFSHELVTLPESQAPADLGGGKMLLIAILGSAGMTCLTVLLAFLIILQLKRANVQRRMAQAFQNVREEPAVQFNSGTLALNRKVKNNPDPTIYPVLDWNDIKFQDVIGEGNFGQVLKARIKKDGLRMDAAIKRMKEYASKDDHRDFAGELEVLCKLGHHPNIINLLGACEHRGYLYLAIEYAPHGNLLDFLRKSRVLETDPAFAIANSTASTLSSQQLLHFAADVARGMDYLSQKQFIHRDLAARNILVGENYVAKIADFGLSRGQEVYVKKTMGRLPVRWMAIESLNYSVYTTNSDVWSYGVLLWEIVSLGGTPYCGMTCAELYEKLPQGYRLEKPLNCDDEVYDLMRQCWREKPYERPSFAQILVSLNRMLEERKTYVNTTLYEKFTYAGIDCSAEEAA
TNIK, sequence (Q9UKE5 whole entry): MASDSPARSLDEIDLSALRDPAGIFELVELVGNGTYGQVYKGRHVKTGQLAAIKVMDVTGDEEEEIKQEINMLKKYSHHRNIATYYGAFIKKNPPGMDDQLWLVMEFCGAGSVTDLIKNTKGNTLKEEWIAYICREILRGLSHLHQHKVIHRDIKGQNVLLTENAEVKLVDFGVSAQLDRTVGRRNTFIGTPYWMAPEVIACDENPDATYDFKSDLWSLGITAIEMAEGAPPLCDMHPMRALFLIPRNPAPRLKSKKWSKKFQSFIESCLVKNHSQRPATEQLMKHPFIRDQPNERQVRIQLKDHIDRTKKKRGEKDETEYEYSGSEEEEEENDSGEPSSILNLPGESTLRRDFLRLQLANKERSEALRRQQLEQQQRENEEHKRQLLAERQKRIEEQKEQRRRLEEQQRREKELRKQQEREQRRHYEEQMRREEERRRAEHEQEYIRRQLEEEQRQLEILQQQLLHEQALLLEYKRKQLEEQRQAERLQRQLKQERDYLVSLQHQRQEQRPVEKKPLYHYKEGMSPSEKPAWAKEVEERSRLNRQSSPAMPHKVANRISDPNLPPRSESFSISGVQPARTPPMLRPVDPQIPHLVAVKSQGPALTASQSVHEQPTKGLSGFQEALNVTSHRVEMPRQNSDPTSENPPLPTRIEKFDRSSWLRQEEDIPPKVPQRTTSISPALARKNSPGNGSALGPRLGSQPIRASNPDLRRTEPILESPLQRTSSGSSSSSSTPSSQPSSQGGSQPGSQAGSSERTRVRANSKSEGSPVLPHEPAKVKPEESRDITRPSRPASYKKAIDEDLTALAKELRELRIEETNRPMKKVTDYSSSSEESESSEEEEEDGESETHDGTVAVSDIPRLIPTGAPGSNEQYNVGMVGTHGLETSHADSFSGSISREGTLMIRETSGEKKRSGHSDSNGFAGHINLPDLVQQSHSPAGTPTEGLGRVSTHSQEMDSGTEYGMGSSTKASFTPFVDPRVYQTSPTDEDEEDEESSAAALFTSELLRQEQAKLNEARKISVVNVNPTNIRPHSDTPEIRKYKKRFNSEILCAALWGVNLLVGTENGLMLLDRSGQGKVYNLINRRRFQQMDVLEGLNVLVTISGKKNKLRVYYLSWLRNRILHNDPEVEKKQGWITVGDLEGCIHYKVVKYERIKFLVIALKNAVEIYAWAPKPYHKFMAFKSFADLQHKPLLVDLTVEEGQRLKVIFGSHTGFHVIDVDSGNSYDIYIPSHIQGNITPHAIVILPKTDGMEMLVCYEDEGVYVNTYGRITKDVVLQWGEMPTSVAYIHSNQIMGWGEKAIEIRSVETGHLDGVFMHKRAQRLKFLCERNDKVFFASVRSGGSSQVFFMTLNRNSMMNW
T4 sequence (P19784 whole entry): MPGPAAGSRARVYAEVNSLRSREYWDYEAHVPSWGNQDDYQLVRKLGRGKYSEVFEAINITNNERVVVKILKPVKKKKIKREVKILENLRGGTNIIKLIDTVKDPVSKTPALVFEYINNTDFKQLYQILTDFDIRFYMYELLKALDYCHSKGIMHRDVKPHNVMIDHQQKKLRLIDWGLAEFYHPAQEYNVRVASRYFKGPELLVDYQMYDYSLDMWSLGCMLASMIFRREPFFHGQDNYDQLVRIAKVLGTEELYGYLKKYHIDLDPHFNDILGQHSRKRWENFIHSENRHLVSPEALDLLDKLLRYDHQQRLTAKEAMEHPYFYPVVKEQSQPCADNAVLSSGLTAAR

COc1cc(N2CCN(C)CC2)c(C)cc1Nc1ncc(Br)c(Nc2cccnc2N(C)C)n1 [TP-5801]
remaining activity at 0.3 µM (CAMK2d; [1]): 4.74% | remaining activity at 0.3 µM (CAMK2d; [2]): 4.45% | remaining activity at 0.3 µM (CAMK2g; [1]): 157% | remaining activity at 0.3 µM (CAMK2g; [2]): 153% | remaining activity at 0.3 µM (PDGFRa; [1]): 84.6% | remaining activity at 0.3 µM (PDGFRa; [2]): 84.5% | remaining activity at 0.3 µM (MST1/STK4; [1]): 101% | remaining activity at 0.3 µM (MST1/STK4; [2]): 97.2% | remaining activity at 0.3 µM (PKMYT1; [1]): 62.9% | remaining activity at 0.3 µM (PKMYT1; [2]): 62.8% | remaining activity at 0.3 µM (IKKe/IKBKE; [1]): 99.7% | remaining activity at 0.3 µM (IKKe/IKBKE; [2]): 94.2% | remaining activity at 0.3 µM (LCK; [1]): 101% | remaining activity at 0.3 µM (LCK; [2]): 99.4% | remaining activity at 0.3 µM (MNK1; [1]): 92.5% | remaining activity at 0.3 µM (MNK1; [2]): 90.8% | remaining activity at 0.3 µM (Aurora A; [1]): 101% | remaining activity at 0.3 µM (Aurora A; [2]): 99.6% | remaining activity at 0.3 µM (AXL; [1]): 89.2% | remaining activity at 0.3 µM (AXL; [2]): 86.3% | remaining activity at 0.3 µM (CK2a2; [1]): 107% | remaining activity at 0.3 µM (CK2a2; [2]): 89.1% | remaining activity at 0.3 µM (EPHA1; [1]): 96.8% | remaining activity at 0.3 µM (EPHA1; [2]): 96.5% | remaining activity at 0.3 µM (TNIK; [1]): 49.6% | remaining activity at 0.3 µM (TNIK; [2]): 48.7% | remaining activity at 0.3 µM (TIE2/TEK; [1]): 83.6% | remaining activity at 0.3 µM (TIE2/TEK; [2]): 80.7%
